Assay results reported in patent US20240034812A1, “BISPECIFIC ANTIBODY AGAINST CD3 AND CD20 IN COMBINATION THERAPY FOR TREATING DIFFUSE LARGE B-CELL LYMPHOMA” (GENMAB A/S, priority 2020, published 2024).
Where two headings read alike, the source gives them in different places.

Tests used:
T cells = test: T cell viability after pre-incubation with CHOP components; type: cell-based
CD20 = target: T1, CD20 (Homo sapiens, UniProt P11836); details: bind to a different epitope; cited from earlier work
T1 sequence (P11836 1-297): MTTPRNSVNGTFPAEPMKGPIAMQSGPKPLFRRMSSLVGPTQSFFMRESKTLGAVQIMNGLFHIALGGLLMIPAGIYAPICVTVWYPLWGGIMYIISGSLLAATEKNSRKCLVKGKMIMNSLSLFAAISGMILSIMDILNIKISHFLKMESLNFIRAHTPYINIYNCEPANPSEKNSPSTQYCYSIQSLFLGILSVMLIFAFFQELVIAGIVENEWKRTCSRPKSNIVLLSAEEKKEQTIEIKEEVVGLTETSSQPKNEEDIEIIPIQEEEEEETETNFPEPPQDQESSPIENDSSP

[1] = test system: primary DLBCL and follicular lymphoma patient biopsies; details: cited from earlier work
[2] = test system: relapsed/refractory (R/R) B-NHL; test: epcoritamab monotherapy clinical trial (NCT03625037); type: in vivo
Source text: Epcoritamab as monotherapy is currently in a clinical trial for the treatment of relapsed/refractory (R/R) B-NHL (ClinicalTrials.gov Identifier: NCT03625037).

[3] = test system: CD20-expressing Raji-luc tumor cells; details: even in the presence of an excess of IgG1-RTX-FEAR; Engelberts et al. 2020; cited from earlier work
[4] = test system: previously untreated, high-risk (IPI or R-IPI≥3) DLBCL; test: Phase 1b open-label trial of epcoritamab in combination with R-CHOP; type: in vivo, human; details: as of Sep. 8, 2021; CRS under epcoritamab + R-CHOP
Description: Epcoritamab is initially be administered in combination with R-CHOP in a 3-subject cohort. DLTs are evaluated during the first 28 days.
Cyclophosphamide (750 mg/m^2) is administered intravenously on day 1 once every three weeks (Q3 W) of cycles 1-6 or 1-8. Doxorubicin (50 mg/m^2) is administered intravenously on day 1 once every three weeks (Q3 W) of cycles 1-6 or 1-8. Vincristine (1.4 mg/m^2, with a recommended cap of 2 mg) is administered intravenously on day 1 once every three weeks (Q3 W) of cycles 1-6 or 1-8. Prednisone (100 mg/day) is administered intravenously or orally on five consecutive days (days 1-5) every three weeks (Q3 W) of cycles 1-6 or 1-8.
MRD negativity rate, is defined as the proportion of subjects with at least 1 undetectable MRD result according to the specific threshold, prior to initiation of subsequent therapy.

[5] = T cells pre-incubated 16 hours, data not shown

With `O=P1(N(CCCl)CCCl)NCCCO1` (centres unmarked) [cyclophosphamide, 2H-1,3,2-Oxazaphosphorin-2-amine, N,N-bis(2-chloroethyl)tetrahydro-, 2-oxide] the “T cell viability after pretreatment” value (T cells) was “did not impact T cell viability”.
With `COc1cccc2c1C(=O)c1c(O)c3c(c(O)c1C2=O)C[C@@](O)(C(=O)CO)C[C@@H]3O[C@H]1C[C@H](N)[C@H](O)[C@H](C)O1` [doxorubicin] the “T cell viability after pretreatment” value (T cells; [5]) was “led to a reduction in T cell viability”.
For `C[C@]12C=CC(=O)C=C1CC[C@@H]1[C@@H]2C(=O)C[C@@]2(C)[C@H]1CC[C@]2(O)C(=O)CO` [prednisone, 17,21-dihydroxypregna-1,4-diene-3,11,20-trione], the “T cell viability after pretreatment” value (T cells; [5]) was “did not impact T cell viability”.
For `CC[C@]1(O)C[C@H]2CN(CCc3c([nH]c4ccccc34)[C@@](C(=O)OC)(c3cc4c(cc3OC)N(C=O)[C@H]3[C@@](O)(C(=O)OC)[C@H](OC(C)=O)[C@]5(CC)C=CCN6CC[C@]43[C@@H]65)C2)C1` [vincristine], the “T cell viability after pretreatment” value (T cells; [5]) was “did not impact T cell viability”.
For “IgG1-CD20: anti-CD20 antibody of which the CD20 arm of epcoritamab is derived”, the “competition for CD20 binding” value (CD20) is listed as “compete for CD20 binding”.
In the case of “epcoritamab: IgG1 bispecific CD3xCD20 antibody; heavy and light chain pairs SEQ ID NOs: 24/25 (CD3ε arm) and 26/27 (CD20 arm); CAS 2134641-34-0”, the T-cell-mediated cytotoxicity ([1]; biopsies taken a certain amount of time after anti-CD20 antibody, Van der Horst et al. 2019) is listed as “induced T-cell-mediated cytotoxicity”, the tumor cell kill ([1]; biopsy taken 2 weeks after administering anti-CD20 antibody) is listed as “up to 40%” and the tolerated dose ([2]; human, in vivo) is listed as “at least 48 mg”. For the same molecule, the dose-limiting toxicities ([2]; monotherapy, R/R B-NHL patients, preliminary data) was “no dose-limiting toxicities reported” and the tumor growth [3] was “effectively reduce tumor growth”.
In the case of “tocilizumab: a humanized antibody against IL-6 receptor, commercially available as, e.g., ACTEMRA”, the “outcome of the Grade 3 CRS episode after treatment” value [4] is reported as “recovered”.
